Measurements taken from patent publication US10294248B2, “Beta-lactamase inhibitors” (VenatoRx Pharmaceuticals, Inc., priority 2013, dated 2019).

Assays:
[1] = molecular target: T1, VIM-2 metallo-β-lactamase (Class B) (Pseudomonas aeruginosa, UniProt Q9K2N0); test: β-Lactamase inhibition, VIM-2; assay type: biochemical; conditions: nitrocefin 100 μM, 486 nm; 15 min preincubation at 37° C., PBS pH 7.4
T1 construct: made in house; host or cells: E. coli BL21(DE3)
In short: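 Purified VIM-2 (Q sepharose anion exchange, Hepes pH 7.5, >90% pure) was preincubated with inhibitor at 37 °C for 15 min, then nitrocefin added at 100 μM final. Absorbance at 486 nm was followed for 10 min; IC50 was taken from maximum hydrolysis rates relative to inhibitor-free controls.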

[2] = molecular target: T2, SHV-5 β-lactamase (Class A ESBL) (Klebsiella pneumoniae, UniProt P0A3M1); test: β-Lactamase inhibition, SHV-5; assay type: biochemical
T2 construct: made in house; host or cells: E. coli BL21(DE3)
T2 sequence (P0A3M1 22-286): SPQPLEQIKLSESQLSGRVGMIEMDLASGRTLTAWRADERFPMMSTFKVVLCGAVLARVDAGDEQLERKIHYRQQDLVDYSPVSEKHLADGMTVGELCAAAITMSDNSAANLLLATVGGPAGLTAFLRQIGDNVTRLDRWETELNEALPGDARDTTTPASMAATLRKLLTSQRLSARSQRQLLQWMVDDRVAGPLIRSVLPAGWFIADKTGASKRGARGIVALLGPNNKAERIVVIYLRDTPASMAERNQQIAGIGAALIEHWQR
In short: (§1)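 Native untagged enzymes expressed in E. coli BL21(DE3), purified by cation exchange and gel filtration. Inhibitor preincubated with enzyme 15 min at 37 °C; hydrolysis followed by absorbance: imipenem at 300 nm for KPC-2, cefotaxime at 260 nm for SHV-5. IC50 as concentration halving initial hydrolysis rate versus inhibitor-free wells.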

[3] = system: P. aeruginosa Ps296 expressing VIM-2; test: Broth microdilution MIC, P. aeruginosa Ps296 VIM-2; assay type: cell-based; conditions: fixed 4 μg/mL meropenem; CAMHB, 16-20 hours at 37° C.
In short: (§2)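 Potentiation MIC by CLSI broth microdilution in cation-adjusted Mueller Hinton broth. Test compound was 2-fold serially diluted from 32 to 0.25 μg/ml with a β-lactam held at a static 4 μg/ml. After 16-20 h at 37° C, MIC was read visually.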

[4] = system: K. pneumoniae 156319 expressing KPC-3; test: Broth microdilution MIC, K. pneumoniae 156319 KPC-3; assay type: cell-based; conditions: fixed 4 μg/mL meropenem; CAMHB, 16-20 hours at 37° C.
In short: as §2

[5] = system: K. pneumoniae A-1797 expressing KPC-2 and VIM-4; test: Broth microdilution MIC, K. pneumoniae A-1797 KPC-2/VIM-4; assay type: cell-based; conditions: fixed 4 μg/mL meropenem; CAMHB, 16-20 hours at 37° C.
In short: as §2

[6] = molecular target: T3, p99 AmpC β-lactamase (Class C) (Enterobacter cloacae, UniProt P05364); test: β-Lactamase inhibition, p99 AmpC; assay type: biochemical
T3 construct: made in house; host or cells: E. coli BL21(DE3)
T3 sequence (P05364 21-381): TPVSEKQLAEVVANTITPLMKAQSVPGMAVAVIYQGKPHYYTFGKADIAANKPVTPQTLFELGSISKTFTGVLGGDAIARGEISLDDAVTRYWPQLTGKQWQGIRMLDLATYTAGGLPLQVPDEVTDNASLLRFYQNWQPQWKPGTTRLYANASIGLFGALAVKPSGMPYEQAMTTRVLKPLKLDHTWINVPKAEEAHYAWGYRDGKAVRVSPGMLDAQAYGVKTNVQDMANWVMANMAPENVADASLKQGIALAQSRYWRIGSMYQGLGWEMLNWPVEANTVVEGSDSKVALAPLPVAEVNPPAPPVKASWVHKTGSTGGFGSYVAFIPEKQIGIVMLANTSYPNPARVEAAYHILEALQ

[7] = system: S. aureus MSSA-7 producing penicillinase PC-1; test: Broth microdilution MIC, S. aureus MSSA-7 PC-1; assay type: cell-based; conditions: fixed 4 μg/mL piperacillin; CAMHB, 16-20 hours at 37° C.
In short: as §2

[8] = system: E. cloacae 144200 expressing Class C P99 AmpC; test: Broth microdilution MIC, E. cloacae 144200 p99 AmpC; assay type: cell-based; conditions: fixed 4 μg/mL ceftazidime; CAMHB, 16-20 hours at 37° C.
In short: as §2

[9] = molecular target: T4, KPC-2 β-lactamase (Class A carbapenemase) (Klebsiella pneumoniae, UniProt Q9F663); test: β-Lactamase inhibition, KPC-2; assay type: biochemical; conditions: imipenem substrate, 300 nm; 15 min preincubation at 37° C., PBS pH 7.4
T4 construct: made in house; host or cells: E. coli BL21(DE3)
T4 sequence (Q9F663 25-293, looked up): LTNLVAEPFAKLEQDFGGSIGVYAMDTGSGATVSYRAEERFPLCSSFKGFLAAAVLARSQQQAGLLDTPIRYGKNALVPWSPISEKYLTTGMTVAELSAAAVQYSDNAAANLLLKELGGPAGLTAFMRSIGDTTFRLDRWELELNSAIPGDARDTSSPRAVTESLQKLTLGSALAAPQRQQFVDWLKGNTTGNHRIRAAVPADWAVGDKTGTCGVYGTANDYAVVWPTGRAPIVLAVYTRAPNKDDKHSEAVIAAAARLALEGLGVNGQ
In short: as §1

[10] = system: E. coli ESBL4 expressing CTX-M-15; test: Broth microdilution MIC, E. coli ESBL4 CTX-M-15; assay type: cell-based; conditions: fixed 4 μg/mL ceftazidime; CAMHB, 16-20 hours at 37° C.
In short: as §2

[11] = molecular target: T5, OXA-1 β-lactamase (Class D oxacillinase) (Escherichia coli, UniProt P13661); test: β-Lactamase inhibition, OXA-1; assay type: biochemical; conditions: nitrocefin 100 μM, 486 nm; 15 min preincubation at 37° C., PBS pH 7.4
T5 construct: made in house; host or cells: E. coli BL21(DE3)
T5 sequence (P13661 26-276): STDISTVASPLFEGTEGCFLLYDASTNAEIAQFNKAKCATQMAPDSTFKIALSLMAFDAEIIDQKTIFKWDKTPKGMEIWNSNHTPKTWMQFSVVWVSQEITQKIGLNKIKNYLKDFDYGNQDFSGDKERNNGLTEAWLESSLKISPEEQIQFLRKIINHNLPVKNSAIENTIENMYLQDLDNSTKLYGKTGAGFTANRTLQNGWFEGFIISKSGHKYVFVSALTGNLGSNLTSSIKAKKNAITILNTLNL
In short: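 Untagged enzyme from E. coli BL21(DE3), purified by Capto S then Superdex 75; 15 min 37 °C preincubation with inhibitor; KPC-2 read with imipenem at 300 nm, SHV-5 with cefotaxime at 260 nm, OXA-1 with nitrocefin 100 μM final at 486 nm; 10 min kinetic read; IC50 vs uninhibited wells.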

SMILES | IC50 [1] [nM] | IC50 [2] [nM] | MIC of example compound in presence of fixed β-lactam: Fixed Mero, P. aerug. Ps296 VIM-2 [3] | MIC of example compound in presence of fixed β-lactam: Fixed Mero, K. P. 156319 KPC-3 [4] | MIC of example compound in presence of fixed β-lactam: Fixed Mero, K. P. A-1797 KPC-2 VIM-4 [5] | IC50 [6] [nM] | MIC of example compound in presence of fixed β-lactam: Fixed Pip, S. aureus MSSA-7 PC-1 [7] | MIC of example compound in presence of fixed β-lactam: Fixed CAZ, E. cl. 144200 p99 AmpC [8] | IC50 [9] [nM] | MIC of example compound in presence of fixed β-lactam: Fixed CAZ, E. coli ESBL4 CTX-M-15 [10] | IC50 [11] [nM]
NCC1CN(CC(=O)N[C@H]2Cc3cccc(C(=O)O)c3OB2O)CCC1N (some centres unmarked) [Example 29, 3-[2-(4-Amino-3-aminomethyl-piperidin-1-yl)-acetylamino]-2-hydroxy-3,4-dihydro-2H-benzo[e][1,2]oxaborinine-8-carboxylic acid] | 10000 to 100000 | 1000 to 10000 | C (the MIC in the presence of <4 μg/mL of a β-lactamase inhibitor) | C (the MIC in the presence of <4 μg/mL of a β-lactamase inhibitor) | B (the MIC in the presence of between 8 and 32 μg/mL of a β-lactamase inhibitor) | 100 to 1000 | C (the MIC in the presence of <4 μg/mL of a β-lactamase inhibitor) | C (the MIC in the presence of <4 μg/mL of a β-lactamase inhibitor) | 100 to 1000 | C (the MIC in the presence of <4 μg/mL of a β-lactamase inhibitor) | 100 to 1000
O=C(CN1CCNCC1)N[C@H]1Cc2cccc(C(=O)O)c2OB1O [Example 4, 2-Hydroxy-3-(2-piperazin-1-yl-acetylamino)-3,4-dihydro-2H-benzo[e][1,2]oxaborinine-8-carboxylic acid] | 1000 to 10000 | < 100 | B (the MIC in the presence of between 8 and 32 μg/mL of a β-lactamase inhibitor) | C (the MIC in the presence of <4 μg/mL of a β-lactamase inhibitor) | B (the MIC in the presence of between 8 and 32 μg/mL of a β-lactamase inhibitor) | < 100 | C (the MIC in the presence of <4 μg/mL of a β-lactamase inhibitor) | C (the MIC in the presence of <4 μg/mL of a β-lactamase inhibitor) | < 100 | C (the MIC in the presence of <4 μg/mL of a β-lactamase inhibitor) | 100 to 1000
O=C(CN1CCN(CCO)CC1)N[C@H]1Cc2cccc(C(=O)O)c2OB1O [Example 18, 2-Hydroxy-3-{2-[4-(2-hydroxy-ethyl)-piperazin-1-yl]-acetylamino}-3,4-dihydro-2H-benzo[e][1,2]oxaborinine-8-carboxylic acid] | 100 to 1000 | 100 to 1000 | B (the MIC in the presence of between 8 and 32 μg/mL of a β-lactamase inhibitor) | C (the MIC in the presence of <4 μg/mL of a β-lactamase inhibitor) | B (the MIC in the presence of between 8 and 32 μg/mL of a β-lactamase inhibitor) | < 100 | A (an MIC of the fixed β-lactam antibiotic in the presence of >32 μg/mL of a β-lactamase inhibitor) | C (the MIC in the presence of <4 μg/mL of a β-lactamase inhibitor) | 100 to 1000 | B (the MIC in the presence of between 8 and 32 μg/mL of a β-lactamase inhibitor) | < 100
NCC1CCCN(CC(=O)N[C@H]2Cc3cccc(C(=O)O)c3OB2O)C1 (some centres unmarked) [Example 19, 3-[2-(3-Aminomethyl-piperidin-1-yl)-acetylamino]-2-hydroxy-3,4-dihydro-2H-benzo[e][1,2]oxaborinine-8-carboxylic acid] | 10000 to 100000 | < 100 | A (an MIC of the fixed β-lactam antibiotic in the presence of >32 μg/mL of a β-lactamase inhibitor) | B (the MIC in the presence of between 8 and 32 μg/mL of a β-lactamase inhibitor) | A (an MIC of the fixed β-lactam antibiotic in the presence of >32 μg/mL of a β-lactamase inhibitor) | < 100 | B (the MIC in the presence of between 8 and 32 μg/mL of a β-lactamase inhibitor) | C (the MIC in the presence of <4 μg/mL of a β-lactamase inhibitor) | 100 to 1000 | C (the MIC in the presence of <4 μg/mL of a β-lactamase inhibitor) | < 100
NCCNC1CCN(CC(=O)N[C@H]2Cc3cccc(C(=O)O)c3OB2O)CC1 [Example 30, 3-{2-[4-(2-Amino-ethylamino)-piperidin-1-yl]-acetylamino}-2-hydroxy-3,4-dihydro-2H-benzo[e][1,2]oxaborinine-8-carboxylic acid] | 1000 to 10000 | < 100 | B (the MIC in the presence of between 8 and 32 μg/mL of a β-lactamase inhibitor) | C (the MIC in the presence of <4 μg/mL of a β-lactamase inhibitor) | A (an MIC of the fixed β-lactam antibiotic in the presence of >32 μg/mL of a β-lactamase inhibitor) | < 100 | A (an MIC of the fixed β-lactam antibiotic in the presence of >32 μg/mL of a β-lactamase inhibitor) | C (the MIC in the presence of <4 μg/mL of a β-lactamase inhibitor) | < 100 | C (the MIC in the presence of <4 μg/mL of a β-lactamase inhibitor) | < 100
N[C@H]1CCN(CC(=O)N[C@H]2Cc3cccc(C(=O)O)c3OB2O)C1 [Example 7, 3-[2-(S-3-Amino-pyrrolidin-1-yl)-acetylamino]-2-hydroxy-3,4-dihydro-2H-benzo[e][1,2]oxaborinine-8-carboxylic acid] | 1000 to 10000 | < 100 | A (an MIC of the fixed β-lactam antibiotic in the presence of >32 μg/mL of a β-lactamase inhibitor) | C (the MIC in the presence of <4 μg/mL of a β-lactamase inhibitor) | A (an MIC of the fixed β-lactam antibiotic in the presence of >32 μg/mL of a β-lactamase inhibitor) | < 100 | C (the MIC in the presence of <4 μg/mL of a β-lactamase inhibitor) | C (the MIC in the presence of <4 μg/mL of a β-lactamase inhibitor) | 100 to 1000 | C (the MIC in the presence of <4 μg/mL of a β-lactamase inhibitor) | 100 to 1000
CNC1CCN(CC(=O)N[C@H]2Cc3cccc(C(=O)O)c3OB2O)CC1O (some centres unmarked) [Example 20, 2-Hydroxy-3-[2-(3-hydroxy-4-methylamino-piperidin-1-yl)-acetylamino]-3,4-dihydro-2H-benzo[e][1,2]oxaborinine-8-carboxylic acid] | 1000 to 10000 | 100 to 1000 | B (the MIC in the presence of between 8 and 32 μg/mL of a β-lactamase inhibitor) | C (the MIC in the presence of <4 μg/mL of a β-lactamase inhibitor) | A (an MIC of the fixed β-lactam antibiotic in the presence of >32 μg/mL of a β-lactamase inhibitor) | < 100 | C (the MIC in the presence of <4 μg/mL of a β-lactamase inhibitor) | C (the MIC in the presence of <4 μg/mL of a β-lactamase inhibitor) | 100 to 1000 | C (the MIC in the presence of <4 μg/mL of a β-lactamase inhibitor) | < 100
